Source: paper PMC6209530 (Journal of the American Chemical Society, 2018)
Where two headings read alike, the source gives them in different places. Peptide text beside a SMILES is read from it. * marks the point of attachment. X1 = CCCCCCCCCCCCCCCC(=O)OCC(C*)OC(=O)CCCCCCCCCCCCCCC; Palmitoyl = CCCCCCCCCCCCCCCC(=O)*

Columns and labels:
[1] = system: differentiated human THP-1 cells; assay type: cell-based
mouse macrophages [2] = experiment: stimulated release of TNF-α from mouse macrophages; assay type: cell-based; details: read-out: EC50, stimulated release of TNF-α
mouse macrophages [3] = experiment: cell growth inhibition; assay type: cell-based; details: read-out: IC50, cell growth inhibition
human THP-1 cells = experiment: cell growth inhibition; assay type: cell-based; details: read-out: IC50, cell growth inhibition
L1210 mouse leukemia = experiment: cell growth inhibition; assay type: cell-based; details: read-out: IC50, cell growth inhibition
[4] = system: HCT116 human colon cancer; experiment: cell growth inhibition; assay type: cell-based; details: read-out: IC50, cell growth inhibition
B16 mouse melanoma = experiment: cell growth inhibition; assay type: cell-based; details: read-out: IC50, cell growth inhibition
[5] = system: human foreskin (HFF) fibroblast cells; experiment: cell growth inhibition; assay type: cell-based; details: read-out: IC50, cell growth inhibition
[6] = system: mouse (NIH/3T3) fibroblast cells; experiment: cell growth inhibition; assay type: cell-based; details: read-out: IC50, cell growth inhibition
TLR1 and TLR2 = TLR1 and TLR2 (Mus musculus, UniProt Q9EPQ1+Q9QUN7); assay type: cell-based; details: 500 nM, macrophages from mutant or knockout mice
Chain of TLR1 and TLR2 (Q9EPQ1 26-795): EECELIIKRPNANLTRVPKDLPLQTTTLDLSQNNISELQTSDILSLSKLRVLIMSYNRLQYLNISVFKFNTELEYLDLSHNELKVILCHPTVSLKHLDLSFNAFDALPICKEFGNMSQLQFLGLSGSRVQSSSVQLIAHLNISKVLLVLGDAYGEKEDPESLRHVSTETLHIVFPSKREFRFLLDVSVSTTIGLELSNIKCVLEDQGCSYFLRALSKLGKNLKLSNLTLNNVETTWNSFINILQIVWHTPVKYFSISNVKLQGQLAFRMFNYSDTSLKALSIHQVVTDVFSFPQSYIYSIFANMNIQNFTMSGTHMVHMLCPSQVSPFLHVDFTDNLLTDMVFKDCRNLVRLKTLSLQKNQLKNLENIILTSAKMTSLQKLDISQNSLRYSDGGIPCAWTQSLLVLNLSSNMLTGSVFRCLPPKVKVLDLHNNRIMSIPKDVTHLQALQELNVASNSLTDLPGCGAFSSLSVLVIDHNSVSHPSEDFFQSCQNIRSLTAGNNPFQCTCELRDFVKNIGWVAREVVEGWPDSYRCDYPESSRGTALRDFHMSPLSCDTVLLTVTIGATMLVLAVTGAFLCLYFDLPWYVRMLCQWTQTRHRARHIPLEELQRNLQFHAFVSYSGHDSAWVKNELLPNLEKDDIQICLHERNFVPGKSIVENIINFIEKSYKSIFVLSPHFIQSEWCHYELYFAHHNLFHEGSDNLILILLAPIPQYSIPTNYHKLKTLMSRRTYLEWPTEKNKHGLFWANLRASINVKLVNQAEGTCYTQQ
Chain of TLR1 and TLR2 (Q9QUN7 25-784): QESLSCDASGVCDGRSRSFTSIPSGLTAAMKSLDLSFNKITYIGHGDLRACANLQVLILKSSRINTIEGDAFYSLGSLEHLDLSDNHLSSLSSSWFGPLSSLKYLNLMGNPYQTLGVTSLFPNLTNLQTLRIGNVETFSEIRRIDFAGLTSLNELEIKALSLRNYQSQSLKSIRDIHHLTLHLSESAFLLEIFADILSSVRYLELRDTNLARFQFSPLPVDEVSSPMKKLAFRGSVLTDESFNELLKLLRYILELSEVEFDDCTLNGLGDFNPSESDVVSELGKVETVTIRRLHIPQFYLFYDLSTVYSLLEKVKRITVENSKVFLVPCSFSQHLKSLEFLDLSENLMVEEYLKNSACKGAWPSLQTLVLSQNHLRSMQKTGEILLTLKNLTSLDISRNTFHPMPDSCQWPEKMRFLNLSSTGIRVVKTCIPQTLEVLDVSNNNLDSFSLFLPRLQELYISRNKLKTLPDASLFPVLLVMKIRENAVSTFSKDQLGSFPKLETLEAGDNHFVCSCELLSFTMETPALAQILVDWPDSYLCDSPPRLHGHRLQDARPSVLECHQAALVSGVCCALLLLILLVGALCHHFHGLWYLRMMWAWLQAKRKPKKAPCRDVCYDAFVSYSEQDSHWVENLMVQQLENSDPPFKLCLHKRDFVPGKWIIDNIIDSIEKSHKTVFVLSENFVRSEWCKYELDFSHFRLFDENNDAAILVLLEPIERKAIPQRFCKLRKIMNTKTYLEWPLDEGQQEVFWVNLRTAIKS

[7] = system: IKKα, IKKβ, p38, JNK, and ERK; details: cited from earlier work
mice = details: cited from earlier work; for adjuvant activity in mice: intramuscular (i.m.) injection with antigen (OVA)
[8] = system: murine melanoma (B16-OVA); details: combination with anti-PD-L1, diprovocim/OVA i.m., cited from earlier work
[9] = read-out: EC50, stimulated release of TNF-α, differentiated human THP-1 cells

For `O=C(NCCc1ccc(F)cc1)C1CN(C(=O)c2ccc(C(=O)N3CC(C(=O)NCCc4ccc(F)cc4)C(C(=O)NCCc4ccc(F)cc4)C3)cc2)CC1C(=O)NCCc1ccc(F)cc1` (centres unmarked) [Compound 69], the EC50 [1, 9] was 100 nM.

Compound `CCCCCCCCCCCCCCCC(=O)N[C@@H](CSCC(COC(=O)CCCCCCCCCCCCCCC)OC(=O)CCCCCCCCCCCCCCC)C(=O)N[C@@H](CO)C(=O)N[C@@H](CCCCN)C(=O)N[C@@H](CCCCN)C(=O)N[C@@H](CCCCN)C(=O)N[C@@H](CCCCN)C(=O)O` (some centres unmarked) [Pam3CSK4, reference compound] (Palmitoyl-C(X1)SKKKK-OH; N-terminus and C-terminus assumed) has an EC50 [1] of 0.91 nM.

For `O=C(N[C@H]1C[C@@H]1c1ccccc1)[C@@H]1CN(C(=O)c2ccc(C(=O)N3C[C@@H](C(=O)N[C@H]4C[C@@H]4c4ccccc4)[C@H](C(=O)N[C@H]4C[C@@H]4c4ccccc4)C3)cc2)C[C@H]1C(=O)N[C@H]1C[C@@H]1c1ccccc1` [Compound 3], the “times more potent than Pam3CSK4” value ([1]; direct side-by-side comparison, human THP-1 cells) was 5–10 times, the “potency differential human THP-1 cells versus mouse macrophages” value ([1]; human versus mouse cell release of TNF-α) was 10 fold and the EC50 [1, 9] was 0.11 nM. It also gave an EC50 (mouse macrophages [2]) of 1.3 nM, an IC50 (mouse macrophages [3]) greater than 10000 nM and an IC50 (human THP-1 cells) greater than 10000 nM. It also gave an IC50 (L1210 mouse leukemia) greater than 10000 nM, an IC50 [4] greater than 10000 nM and an IC50 (B16 mouse melanoma) greater than 10000 nM. For the same compound, the IC50 [5] was greater than 10000 nM, the IC50 [6] was greater than 10000 nM and the “dependence of activity on downstream signaling proteins” value (TLR1 and TLR2) was “dependent on TLR1/TLR2 signaling through MyD88, TIRAP, and IRAK4”. For the same compound, the “phosphorylation and activation of IKKα, IKKβ, p38, JNK, and ERK” value [7] was “induce the phosphorylation and activation”, the “adjuvant activity in TLR1 and TLR2 deficient mice” value (mice; i.m. with OVA, TLR1 and TLR2 deficient mice) was “inactive” and the “adjuvant activity in mice” value (mice) was “active as an adjuvant”. For the same compound, the “adjuvant activity in mice” value (mice; listed as Diprovocim-1) was “acts as an adjuvant”, the “protection from tumor rechallenge” value [8] was “protected mice from tumor rechallenge” and the “survival of mice implanted with B16-OVA melanoma” value [8] was “cured or prolonged survival of mice”. The “survival of mice implanted with B16-OVA melanoma” value ([8]; listed as diprovocim-1) was “cured or prolonged the survival of mice”.

In the case of `O=C(NCCc1ccc(F)cc1)[C@@H]1CN(C(=O)c2ccc(C(=O)N3C[C@@H](C(=O)NCCc4ccc(F)cc4)[C@H](C(=O)NCCc4ccc(F)cc4)C3)cc2)C[C@H]1C(=O)NCCc1ccc(F)cc1` [Compound 4], the “fold more potent than the all racemate (69)” value ([1]; human THP-1 cells) is reported as 3 fold and the EC50 [1, 9] is reported as 50 nM.
